System: Rhipicephalus sanguineus nymphs
Experiment: Efficacy against Rhipicephalus sanguineus on infested guinea pigs, topical bath treatment
Assay type: in vivo
Conditions: for average number of detached ticks per animal (detachment effect): bath treatment, 24 hours after treatment, guinea pigs infested with 100 nymphs; for overall acaricidal efficacy against R. sanguineus-nymphs: compared to the control group; for average number of engorged ticks per animal: engorged ticks dropping from d4 to d8; for average number of dead ticks after detachment: mortality assessed 24 hours after detachment
Protocol: Efficacy against Rhipicephalus sanguineus
Guinea pigs were infested with 100 nymphs of Rhipicephalus sanguineus (d0). Guinea pigs (n=3) were treated topically (bath treatment) with atipamezol (7.8 ppm), amitraz (2.0 ppm; 3.9 ppm) and two combinations of both (7.8 ppm atipamezol+2.0 ppm amitraz; 7.8 ppm atipamezol+3.9 ppm amitraz), respectively (d1). The control group remained untreated.
The number of detached ticks was assessed 1, 3, 6 and 24 hours after treatment (detachment effect).
The mortality of detached ticks was assessed 24 hours after detachment.
The average number of engorged ticks dropping per animal from d4 to d8 was assessed to determine the overall acaricidal efficacy compared to the control group.

SMILES	average number of detached ticks per animal (detachment effect) (2.0 ppm amitraz)	overall acaricidal efficacy against R. sanguineus-nymphs (2.0 ppm amitraz) [%]	average number of engorged ticks per animal (2.0 ppm amitraz)	average number of dead ticks after detachment (2.0 ppm amitraz)	average number of detached ticks per animal (detachment effect) (3.9 ppm amitraz)	overall acaricidal efficacy against R. sanguineus-nymphs (3.9 ppm amitraz) [%]	average number of engorged ticks per animal (3.9 ppm amitraz)	average number of dead ticks after detachment (3.9 ppm amitraz)	average number of detached ticks per animal (detachment effect) (7.8 ppm atipamezol)	overall acaricidal efficacy against R. sanguineus-nymphs (7.8 ppm atipamezol) [%]	average number of engorged ticks per animal (7.8 ppm atipamezol)	average number of dead ticks after detachment (7.8 ppm atipamezol)	acaricidal/insecticidal effect (in words) (atipamezole alone)
Cc1ccc(N=CN(C)C=Nc2ccc(C)cc2C)c(C)c1 [amitraz, 1,5-di-(2,4-dimethylphenyl)-3-methyl-1,3,5-triazapenta-1,4-diene]	29.7	84	8.7	24.3	43.7	100	0	39.7					
CCC1(c2cnc[nH]2)Cc2ccccc2C1 [atipamezol, 4(5)-(2,3-dihydro-2-ethyl-1H-inden-2-yl)imidazole]									2.0	63	20.7	1.3	does not show an acaricidal/insecticidal effect
